# Residue numbers refer to the chain shown, from its start. “Also recorded” adds a separate entry of the source.
# How the values were obtained:
# [1] = biological target: T1, murine SR-BI with the C384S mutation (Mus musculus, UniProt Q61009, C384S); test: Mutant SR-BI cholesterol efflux assay; assay type: cell-based; settings: Cys384 converted to serine
# T1 construct: expressed in transfected cells; host or cells: CHO cell line lacking LDL receptors, overexpressing C384S SR-BI
# T1 sequence (Q61009 1-509 C384S): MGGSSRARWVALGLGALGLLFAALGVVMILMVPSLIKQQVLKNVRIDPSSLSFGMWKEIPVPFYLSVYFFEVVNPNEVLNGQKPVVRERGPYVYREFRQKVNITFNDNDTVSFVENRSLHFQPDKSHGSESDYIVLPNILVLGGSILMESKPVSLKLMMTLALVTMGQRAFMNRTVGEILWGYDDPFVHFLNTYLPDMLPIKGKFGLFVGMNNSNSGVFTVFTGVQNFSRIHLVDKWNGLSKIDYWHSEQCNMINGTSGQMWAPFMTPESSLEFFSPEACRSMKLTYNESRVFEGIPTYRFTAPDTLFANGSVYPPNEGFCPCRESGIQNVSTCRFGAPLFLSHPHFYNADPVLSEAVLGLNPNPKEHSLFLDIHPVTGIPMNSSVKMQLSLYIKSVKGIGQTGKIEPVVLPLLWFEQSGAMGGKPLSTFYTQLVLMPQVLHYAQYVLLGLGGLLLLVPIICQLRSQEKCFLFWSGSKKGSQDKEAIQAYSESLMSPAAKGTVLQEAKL
# Protocol: Mutant SR-BI Cholesterol Efflux Assay (SA 10: AID Nos. 588843, 602138)
# BLT-1 is known to interact at cysteine 384 of SR-BI (16). […] This assay is used to determine if the compounds work in a similar fashion to BLT-1 and require Cys384 to alter the efflux of FC to HDL.
# On Day 0, 50,000 cells expressing murine SR-BI with the C384S mutation per well were plated in 24-well plates. On the following day, the media was removed and [^3H]cholesterol in lipoprotein-deficient media was added. On Day 1, the medium was replaced with Ham's F12 medium supplemented with 10% bovine lipoprotein deficient serum, 1 μCi/ml [1,2-^3H]cholesterol (40-60 Ci/mmol). On Day 3, the cells were washed to remove serum and incubated in Ham's F12 plus 1% fatty acid-free BSA. On Day 4, the cells were washed and pretreated with compounds for 1 hour. Subsequently, the cells were incubated for an additional 2 hours with the same concentrations of small molecules and with unlabeled HDL (final HDL concentration of 100 μg protein/ml). […] The amount of [^3H]cholesterol in the medium and within cells was determined using liquid scintillation counting. Total cellular [^3H]cholesterol was calculated as the sum of the radioactivity in the efflux medium plus the radioactivity in the cells and was used to calculate the [^3H]cholesterol efflux (percent of total [^3H]cholesterol released into the medium).
# ldlA[mSR-BI] cells = test: Cell cytotoxicity assay (CellTiter-Glo); settings: ldlA[mSR-BI] cells
# Protocol: It is possible that a compound will cause cells to decrease HDL-mediated DiI uptake due to nonspecific consequences of cellular toxicity, representing a second class of false positive hits. The cells were treated with compounds for 3 hours or 24 hours, and then cell viability was measured using the CellTiter-Glo Assay (Promega), a luciferase-based reagent that measures cellular ATP levels. The compounds were tested at different concentrations to determine IC50 values. […] Data were normalized against DMSO and the positive control (1 μM BLT-1) in Genedata Assay Analyzer.
# All available dry powder samples of the remaining, non-quenching compounds were procured from commercial sources and purities were determined. The compounds obtained were then retested in the primary assay and in cytotoxicity assays. We wanted to rule out any compounds that were cytotoxic, especially in the 3-hour time span of the primary DiI-HDL uptake assay. Therefore, compounds were tested in ldl[mSR-BI] cells for cytotoxicity at 3 hours and 24 hours using the CellTiter-Glo assay (Promega) that measures cellular ATP as a marker of cell viability. […] Compounds were screened for inhibition of endocytosis using labeled transferrin, which is known to bind the transferrin receptor, enter cells by clathrin-mediated endocytosis, and move to endosomes before being recycled to the cell surface.
# SR-BI = biological target: T2, SR-BI (Mus musculus, UniProt Q61009); test: Radioactive HDL uptake assay (wild type SR-BI); assay type: cell-based, murine; parameters: expressed in transfected cells; host or cells: ldlA[mSR-BI], Chinese hamster ovary (CHO) cells lacking LDL receptor (Krieger Laboratory); settings: [3H]cholesteryl ester HDL; read-out: IC50 in nonfluorescent, radiolabeled version of the uptake assay
# T2 sequence (Q61009 1-509): T1 sequence (Q61009 1-509 C384S) with S384C
# Excerpt: Radioactive HDL Uptake Assay (Wild Type SR-BI) (SA 8: AID No. 588836)
# The goal of this assay was to verify compounds that disrupt the lipid uptake from HDL particles to SR-BI scavenger receptor-expressing cells using an alternative means of labeling HDL-particles and avoiding any type of fluorescence measurement. To measure this binding event, HDL particles are labeled with [^3H]cholesteryl ester and added to mSR-BI expressing cells. Cells take up the radioactive lipids from HDL via SR-BI in 2 to 3 hours. After significant uptake of the lipids from HDL, the radiolabel can be detected by liquid scintillation counting. The level of radioactivity correlates with the amount of HDL lipid uptake. The uptake of lipid from the HDL particles can be inhibited by the compound BLT-1 or when co-treated with an excess of unlabeled HDL. The mSR-BI expressing cells utilized in the assay are a Chinese hamster ovary (CHO) cell line lacking expression of the LDL receptors and overexpressing the scavenger receptor, SR-BI. Inhibitors of SR-BI and HDL lipid uptake will have a reduction in liquid scintillation counts.
SMILES,efflux of cholesterol in C384S mutant background (in words) [1],cytotoxicity (in words) (ldlA[mSR-BI] cells),IC50 (SR-BI) [nM]
"CCCCCCC1CCCC1=NNC(N)=S (centres unmarked) [BLT-1, reference compound]",cannot reduce uptake of HDL or efflux of cholesterol,extremely toxic to cells,–
"C[C@H](C(=O)NC1CCCC1)N(C(=O)Cn1nnc(-c2ccc3c(c2)OCO3)n1)C1CCCCC1 [ML279, (R)-2-(2-(5-(Benzo[d][1,3]dioxol-5-yl)-2H-tetrazol-2-yl)-N-cyclohexylacetamido)-N-cyclopentylpropanamide]",can reduce uptake and efflux in the mutant background,not cytotoxic; also recorded: no cytotoxicity at 24 hours,1000
